Experimental data published in ChEMBL document CHEMBL1147916, “2-(2-(2-Ethoxybenzoylamino)-4-chlorophenoxy)-N-(2-ethoxybenzoyl)benzamine inhibits EAT cell induced angiogenesis by down regulation of VEGF secretion” (2007).
Calls of active or inactive are those of the source. No cut-off for these calls is given here.

How the values were obtained:
[1] = Antiangiogenic activity against swiss albino mouse EAT cells assessed as decrease in body weight at 100 mg/kg after 6 days; type: functional; set-up: scale not given: the % may be the effect or the level left
EAT [2] = test: Antiangiogenic activity against EAT cells bearing Swiss Albino mouse by CAM assay; type: functional
EAT [3] = test: Antiangiogenic activity against EAT cells bearing Swiss Albino mouse assessed as cell number at 100 mg/kg after 12 days by trypan blue dye exclusion method; type: functional, organism-based; set-up: dose 100 mg/kg
EAT [4] = test: Inhibition of VEGF secretion in EAT cells bearing Swiss Albino mouse at 100 mg/kg after 6 days by VEGF ELISA; type: functional, organism-based; set-up: dose 100 mg/kg
EAT [5] = test: Antiangiogenic activity against EAT cells bearing Swiss Albino mouse assessed as ascites volume at 100 mg/kg after 12 days; type: functional, organism-based; set-up: dose 100 mg/kg
EAT [6] = test: Antiangiogenic activity against EAT cells bearing Swiss Albino mouse assessed as microvasculature at 100 mg/kg after 6 days by peritoneal angiogenesis assay; type: functional, organism-based; set-up: dose 100 mg/kg

In the case of `CCOc1ccccc1C(=O)Nc1ccccc1Oc1ccc(Cl)cc1NC(=O)c1ccccc1OCC`, the Activity [1] is reported as 65%, the Activity (EAT [2]) is reported as “Active” and the Activity (EAT [3]) is reported as “Active”. The Activity (EAT [4]) was “Active”, the Activity (EAT [5]) was “Active” and the Activity (EAT [6]) was “Active”.
